From the Deep4Chem optical property database

Test: photoluminescence quantum yield (fraction); solvent given as SMILES

O=C(O)COc1ccc2[nH]c3c(c2c1)CCCC3=O
photoluminescence quantum yield (in C1CCOC1): 0.01 | photoluminescence quantum yield (in C1COCCO1): 0.007 | photoluminescence quantum yield (in CC#N): 0.024 | photoluminescence quantum yield (in CCCCCCCCCCCCO): 0.012 | photoluminescence quantum yield (in CCCCCCCCCCO): 0.009 | photoluminescence quantum yield (in CCCCCCCCO): 0.017 | photoluminescence quantum yield (in CCCCCCO): 0.016 | photoluminescence quantum yield (in CCCCO): 0.012 | photoluminescence quantum yield (in CCO): 0.017 | photoluminescence quantum yield (in CCOC(C)=O): 0.018 | photoluminescence quantum yield (in CN(C)C=O): 0.07 | photoluminescence quantum yield (in CO): 0.051 | photoluminescence quantum yield (in CS(C)=O): 0.087 | photoluminescence quantum yield (in Cc1ccccc1): 0.026 | photoluminescence quantum yield (in O): 0.011 | photoluminescence quantum yield (in c1ccccc1): 0.006

c1ccc(N(c2ccccc2)c2cc3c4c(c2)N(c2ccccc2)c2cc5c(cc2B4c2ccccc2N3c2ccccc2)B2c3ccccc3N(c3ccccc3)c3cc(N(c4ccccc4)c4ccccc4)cc(c32)N5c2ccccc2)cc1
photoluminescence quantum yield (in Cc1ccccc1): 0.74 | photoluminescence quantum yield (in Cc1ccccc1-c1cccc(Oc2cc3c4c(c2)Oc2cc(-c5ccccc5C)ccc2B4c2ccc(-c4ccccc4C)cc2O3)c1): 0.82

N#Cc1ccc(/C=C/c2ncc(-c3ccccc3)o2)cc1
photoluminescence quantum yield (in ClCCl): 0.65

Cc1csc2[n+]1[B-](F)(F)n1c(c3cccc4cccc1c43)=N2
photoluminescence quantum yield (in C1CCOC1): 0.83 | photoluminescence quantum yield (in CC#N): 0.78 | photoluminescence quantum yield (in CCCCCC): 0.99 | photoluminescence quantum yield (in Cc1ccccc1): 0.99 | photoluminescence quantum yield (in ClCCl): 0.95

CCOC(=O)/N=c1/oc2cc(N(CC)CC)ccc2cc1C#N
photoluminescence quantum yield (in ClCCl): 0.85

Nc1ccc(N2C(=O)c3ccc4c5ccc6c7c(ccc(c8ccc(c3c48)C2=O)c75)C(=O)N(c2ccc(O)cc2)C6=O)cc1
photoluminescence quantum yield (in CN(C)C=O): 0.95

COc1cc(OC)cc(C2=[O+][B-](F)(F)OC(c3ccc4ccccc4c3)=C2)c1
photoluminescence quantum yield (in CC#N): 0.01 | photoluminescence quantum yield (in CC(C)=O): 0.01 | photoluminescence quantum yield (in CCCCCC): 0.19 | photoluminescence quantum yield (in Cc1ccccc1): 0.1 | photoluminescence quantum yield (in ClCCl): 0.05

COc1cc2c(cc1C=C(C#N)C#N)c1ccccc1n2C
photoluminescence quantum yield (in C1CCOC1): 0.002 | photoluminescence quantum yield (in CC#N): 0.003 | photoluminescence quantum yield (in CCOC(C)=O): 0.004 | photoluminescence quantum yield (in CN(C)C=O): 0.005 | photoluminescence quantum yield (in CO): 0.003 | photoluminescence quantum yield (in CS(C)=O): 0.006 | photoluminescence quantum yield (in Cc1ccccc1): 0.003 | photoluminescence quantum yield (in ClC(Cl)Cl): 0.004 | photoluminescence quantum yield (in ClCCl): 0.004

COc1ccc(C2=C(c3ccc(OC)cc3)C(C)(C)c3c2ccc2ccccc32)cc1
photoluminescence quantum yield (in C1CCCCC1): 0.11

N#Cc1ccc(-c2ccc3c(c2)c2cc(-c4ccc(C#N)cc4)ccc2c2c3nc(-c3ccc(-c4ccc(N(c5ccccc5)c5ccccc5)cc4)cc3)n2-c2ccccc2)cc1
photoluminescence quantum yield (in C1CCOC1): 0.54 | photoluminescence quantum yield (in CC#N): 0.51 | photoluminescence quantum yield (in CCCCCC): 0.82 | photoluminescence quantum yield (in CCOCC): 0.9

Cc1cc(C)c(C2=C3C=C(/C=C/C(=O)OCc4ccccc4)C=[N+]3[B-](F)(F)n3cc(/C=C/C(=O)OCc4ccccc4)cc32)c(C)c1
photoluminescence quantum yield (in ClCCl): 0.35

COc1cc(/C=C/c2nc3ccccc3s2)c(OC)cc1/C=C/c1nc(C)nc(C)n1
photoluminescence quantum yield (in C1CCOC1): 0.94 | photoluminescence quantum yield (in CC#N): 0.86 | photoluminescence quantum yield (in ClC(Cl)Cl): 0.88 | photoluminescence quantum yield (in ClCCl): 0.86

Cc1cc(C)c(B(c2ccsc2-c2sccc2P(=O)(c2ccccc2)c2ccccc2)c2c(C)cc(C)cc2C)c(C)c1
photoluminescence quantum yield (in CO): 0.52

c1ccc2c(-c3ccc4sc5ccc(-c6c7ccccc7cc7ccccc67)cc5c4c3)c3ccccc3cc2c1
photoluminescence quantum yield (in C1CCCCC1): 0.47 | photoluminescence quantum yield (in CC#N): 0.5 | photoluminescence quantum yield (in ClCCl): 0.57

Cc1cc(C)c(C2=C3C=C(/C=C/C(=O)OCc4ccccc4)C=[N+]3[B-](F)(F)n3cccc32)c(C)c1
photoluminescence quantum yield (in ClCCl): 0.36

CCC1=C(C)C2=C(C)c3c(I)c(I)c(I)n3[B-](F)(F)[N+]2=C1C
photoluminescence quantum yield (in C1CCCCC1): 0.1 | photoluminescence quantum yield (in CC(C)=O): 0.046 | photoluminescence quantum yield (in CCO): 0.061 | photoluminescence quantum yield (in CCOC(C)=O): 0.072 | photoluminescence quantum yield (in CO): 0.051 | photoluminescence quantum yield (in OCC(F)(F)F): 0.04

CSc1ccc2c(c1)N(CCCN(C)C)c1ccccc1S2
photoluminescence quantum yield (in CC#N): 0.003 | photoluminescence quantum yield (in CO): 0.003 | photoluminescence quantum yield (in O): 0.003

C[Si]1(C)O[Si](C)(C)c2cc3nc4ccc([N+](=O)[O-])cc4c(-c4ccccc4)c3cc2[Si](C)(C)O1
photoluminescence quantum yield (in ClCCl): 0.44

Cc1ccc2nc3c(=O)[nH]c(=O)[nH]c3nc2c1C
photoluminescence quantum yield (in CC#N): 0.019
